Experimental data taken from patent US8455534B2, “Estrogen receptor modulators and uses thereof” (Aragon Pharmaceuticals, Inc., priority 2010, dated 2013).

Assays:
[1] = test system: MCF-7 cells; test: Breast Cancer Cell Viability Assay (MCF-7, CellTiter-Glo); type: cell-based; settings: 5 days' compound exposure; for IC50: Homo sapiens, MCF7, 120 h
Outline: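 MCF-7 cells, 320 per well in RPMI with 10% FBS and 20 mM HEPES, adhered overnight, then exposed 5 days to an eleven-point semilog dilution (final 0.3-0.000003 μM). CellTiter-Glo luminescence read; % viability = (sample − cell-free background)/(untreated − background) × 100.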

[2] = molecular target: T1, ER-α (Homo sapiens, UniProt P03372); test: Breast Cancer Cell ER-α In Cell Western Assay (SP1); type: cell-based; settings: MCF-7 cells, SP1 antibody, 4 or 24 hr post compound addition; for Emax: MCF7, read-out: ER-α In Cell Western Assay (SP1) Max Response; for DC50: read-out: ER-α In Cell Western Assay (SP1) IC50
T1 sequence (P03372 1-595): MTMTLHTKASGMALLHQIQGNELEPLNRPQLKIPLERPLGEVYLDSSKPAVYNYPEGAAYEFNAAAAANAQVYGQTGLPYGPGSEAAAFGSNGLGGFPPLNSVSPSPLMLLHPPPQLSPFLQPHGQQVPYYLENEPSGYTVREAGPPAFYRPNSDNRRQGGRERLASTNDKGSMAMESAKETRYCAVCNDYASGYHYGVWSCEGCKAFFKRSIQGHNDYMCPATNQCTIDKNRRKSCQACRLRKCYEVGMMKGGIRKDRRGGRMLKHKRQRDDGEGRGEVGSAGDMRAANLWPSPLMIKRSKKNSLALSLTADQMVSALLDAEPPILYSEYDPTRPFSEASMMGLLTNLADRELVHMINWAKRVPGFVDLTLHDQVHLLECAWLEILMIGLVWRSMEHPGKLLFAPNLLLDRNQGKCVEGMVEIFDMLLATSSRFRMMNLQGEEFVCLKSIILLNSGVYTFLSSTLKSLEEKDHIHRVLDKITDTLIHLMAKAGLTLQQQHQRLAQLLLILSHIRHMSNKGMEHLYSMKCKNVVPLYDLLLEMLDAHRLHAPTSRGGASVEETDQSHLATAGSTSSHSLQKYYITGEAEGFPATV
Outline: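 ER-α protein levels measured by in-cell western with SP1 antibody, ratioed to DRAQ5 DNA signal and given as percent of untreated controls. Compounds added at 0.3–0.000003 μM final (eleven semilog points) to adherent MCF-7 cells in stripped serum; exposure 4 or 24 h before fixation.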

SMILES	MCF7 Viability Assay Max Response [1]	IC50 [1]	Emax [2]	DC50 [2]
CC(C)C/C(=C(/c1ccc(/C=C/C(=O)O)cc1)c1ccc2[nH]ncc2c1)c1ccc(F)cc1Cl [Compound 63, (E)-3-(4-((E)-2-(2-Chloro-4-fluorophenyl)-1-(1H-indazol-5-yl)-4-methylpent-1-en-1-yl)phenyl)acrylic acid]	++ (++ = a single % value ≧ 40%)	≤ 100 nM	≥ 40%	≤ 100 nM
CC/C(=C(/c1ccc(/C=C(\F)C(=O)O)cc1)c1ccc2[nH]ncc2c1)c1ccccc1 [Compound 103, (Z)-3-(4-((E)-1-(1H-Indazol-5-yl)-2-phenylbut-1-en-1-yl)phenyl)-2-fluoroacrylic acid]	++ (++ = a single % value ≧ 40%)	> 100 nM	≥ 40%	≤ 100 nM
O=C(O)/C=C/c1ccc(/C(=C(\c2ccccc2)C(F)(F)F)c2ccc3[nH]ncc3c2)cc1 [Compound 68, (E)-3-(4-((Z)-3,3,3-Trifluoro-1-(1H-indazol-5-yl)-2-phenylprop-1-en-1-yl)phenyl)acrylic acid]	++ (++ = a single % value ≧ 40%)	≤ 100 nM	≥ 40%	≤ 100 nM
CC/C(=C(/c1ccc(/C=C/C(=O)O)cc1)c1ccc2[nH]nc(C)c2c1)c1ccccc1 [Compound 39, (E)-3-(4-((E)-1-(3-Methyl-1H-indazol-5-yl)-2-phenylbut-1-en-1-yl)phenyl)acrylic acid]	++ (++ = a single % value ≧ 40%)	> 100 nM	≥ 40%	> 100 nM
CC/C(=C(/c1ccc(/C=C/C(=O)O)cc1)c1ccc2[nH]ncc2c1)c1ccc(C#N)cc1Cl [Compound 140, (E)-3-(4-((E)-2-(2-Chloro-4-cyanophenyl)-1-(1H-indazol-5-yl)but-1-en-1-yl)phenyl)acrylic acid]	++ (++ = a single % value ≧ 40%)	≤ 100 nM	≥ 40%	
CC/C(=C(/c1ccc(/C=C/C(=O)O)c(C(F)(F)F)c1)c1ccc2[nH]ncc2c1)c1ccccc1 [Compound 107, (E)-3-(4-((Z)-1-(1H-Indazol-5-yl)-2-phenylbut-1-en-1-yl)-2-(trifluoromethyl)phenyl)acrylic acid]	++ (++ = a single % value ≧ 40%)	> 100 nM	≥ 40%	≤ 100 nM
CC/C(=C(/c1ccc(/C=C/C(=O)O)cc1)c1ccc2[nH]ncc2c1)c1ccc(F)cc1C [Compound 25, (E)-3-(4-((E)-2-(4-Fluoro-2-methylphenyl)-1-(1H-indazol-5-yl)but-1-en-1-yl)phenyl)acrylic acid]	++ (++ = a single % value ≧ 40%)	≤ 100 nM	≥ 40%	≤ 100 nM
CC/C(=C(/c1ccc(/C=C/C(=O)O)cc1)c1ccc2[nH]ncc2c1)c1ccc(C)cc1 [Compound 11, (E)-3-(4-((E)-1-(1H-Indazol-5-yl)-2-(p-tolyl)but-1-en-1-yl)phenyl)acrylic acid]	++ (++ = a single % value ≧ 40%)	≤ 100 nM	≥ 40%	≤ 100 nM
CCC/C(=C(/c1ccc(/C=C/C(=O)O)cc1)c1ccc2[nH]ncc2c1)c1ccccc1 [Compound 43, (E)-3-(4-((E)-1-(1H-Indazol-5-yl)-2-phenylpent-1-en-1-yl)phenyl)acrylic acid]	++ (++ = a single % value ≧ 40%)	≤ 100 nM	≥ 40%	≤ 100 nM
CC(C)/C(=C(/c1ccc(/C=C/C(=O)O)cc1)c1ccc2[nH]ncc2c1)c1ccc(F)cc1Cl [Compound 82, (E)-3-(4-((E)-2-(2-Chloro-4-fluorophenyl)-1-(1H-indazol-5-yl)-3-methylbut-1-en-1-yl)phenyl)acrylic acid]	++ (++ = a single % value ≧ 40%)	≤ 100 nM	≥ 40%	≤ 100 nM
COC/C(=C(/c1ccc(/C=C/C(=O)O)cc1)c1ccc2[nH]ncc2c1)c1ccccc1 [Compound 48, (E)-3-(4-((Z)-1-(1H-Indazol-5-yl)-3-methoxy-2-phenylprop-1-en-1-yl)phenyl)acrylic acid]	++ (++ = a single % value ≧ 40%)	≤ 100 nM	≥ 40%	≤ 100 nM
CC/C(=C(/c1ccc(/C=C/C(=O)O)cc1)c1ccc2[nH]ncc2c1Cl)c1ccc(F)cc1Cl [Compound 73, (E)-3-(4-((E)-1-(4-Chloro-1H-indazol-5-yl)-2-(2-chloro-4-fluorophenyl)but-1-en-1-yl)phenyl)acrylic acid]	++ (++ = a single % value ≧ 40%)	≤ 100 nM	≥ 40%	≤ 100 nM
CC/C(=C(/c1ccc(/C=C/C(=O)O)cc1)c1ccc2[nH]ncc2c1F)c1ccc(F)cc1Cl [Compound 61, (E)-3-(4-((E)-2-(2-Chloro-4-fluorophenyl)-1-(4-fluoro-1H-indazol-5-yl)but-1-en-1-yl)phenyl)acrylic acid]	++ (++ = a single % value ≧ 40%)	≤ 100 nM	≥ 40%	≤ 100 nM
O=C(O)/C=C/c1ccc(/C(=C(/CCO)c2ccccc2)c2ccc3[nH]ncc3c2)cc1 [Compound 46, (E)-3-(4-((E)-4-Hydroxy-1-(1H-indazol-5-yl)-2-phenylbut-1-en-1-yl)phenyl)acrylic acid]	+ (+ = a single % value < 40%)	> 100 nM	≥ 40%	> 100 nM
CC/C(=C(/c1ccc(/C=C/C(=O)O)cc1)c1ccc2[nH]ncc2c1C)c1ccccc1 [Compound 36, (E)-3-(4-((E)-1-(4-Methyl-1H-indazol-5-yl)-2-phenylbut-1-en-1-yl)phenyl)acrylic acid]	++ (++ = a single % value ≧ 40%)	≤ 100 nM	≥ 40%	≤ 100 nM
CC/C(=C(/c1ccc(/C=C/C(=O)O)c(OC)c1)c1ccc2[nH]ncc2c1)c1ccccc1 [Compound 109, (E)-3-(4-((Z)-1-(1H-Indazol-5-yl)-2-phenylbut-1-en-1-yl)-2-methoxyphenyl)acrylic acid]	++ (++ = a single % value ≧ 40%)	≤ 100 nM	≥ 40%	
CC/C(=C(/c1ccc(/C=C/C(=O)O)cc1)c1ccc2[nH]ncc2c1)c1cc(F)ccc1F [Compound 32, (E)-3-(4-((E)-2-(2,5-Difluorophenyl)-1-(1H-indazol-5-yl)but-1-en-1-yl)phenyl)acrylic acid]	++ (++ = a single % value ≧ 40%)	≤ 100 nM	≥ 40%	≤ 100 nM
CC/C(=C(/c1ccc(/C=C/C(=O)O)cc1)c1ccc2[nH]ncc2c1)c1ccc(OC)cc1Cl [Compound 121, (E)-3-(4-((E)-2-(2-Chloro-4-methoxyphenyl)-1-(1H-indazol-5-yl)but-1-en-1-yl)phenyl)acrylic acid]	++ (++ = a single % value ≧ 40%)	≤ 100 nM	≥ 40%	≤ 100 nM
CCCC/C(=C(/c1ccc(/C=C/C(=O)O)cc1)c1ccc2[nH]ncc2c1)c1ccccc1 [Compound 59, (E)-3-(4-((E)-1-(1H-Indazol-5-yl)-2-phenylhex-1-en-1-yl)phenyl)acrylic acid]	++ (++ = a single % value ≧ 40%)	≤ 100 nM	≥ 40%	≤ 100 nM
CC/C(=C(/c1ccc(/C=C/C(=O)O)cc1)c1ccc2[nH]ncc2c1)c1ccc(Cl)cc1C [Compound 41, (E)-3-(4-((E)-2-(4-Chloro-2-methylphenyl)-1-(1H-indazol-5-yl)but-1-en-1-yl)phenyl)acrylic acid]	++ (++ = a single % value ≧ 40%)	≤ 100 nM	≥ 40%	≤ 100 nM
CC/C(=C(/c1ccc(/C=C/C(=O)O)cc1)c1ccc2[nH]ncc2c1)c1cccc(C#N)c1C [Compound 141, (E)-3-(4-((E)-2-(3-Cyano-2-methylphenyl)-1-(1H-indazol-5-yl)but-1-en-1-yl)phenyl)acrylic acid]	++ (++ = a single % value ≧ 40%)	> 100 nM	≥ 40%	≤ 100 nM
CCOC(=O)/C=C/c1ccc(/C(=C(/CC)c2ccc(F)cc2Cl)c2ccc3[nH]ncc3c2)cc1.Cl [Compound 110, (E)-Ethyl 3-(4-((E)-2-(2-chloro-4-fluorophenyl)-1-(1H-indazol-5-yl)but-1-en-1-yl)phenyl)acrylate hydrochloride]	+ (+ = a single % value < 40%)	≤ 100 nM	≥ 40%	≤ 100 nM
